Results as given in the NIST ThermoML archive (doi:10.1021/acs.jced.8b00349).

Test: mn = molality of the nth substance listed, in mol/kg
Details: 101 kPa, Liquid; for viscosity: Falling or rolling sphere viscometry; for speed of sound: Frequency=3 MHz, Single path-length method; for mass density: Vibrating tube method

C[n+]1ccn(CCCCn2cc[n+](C)c2)c1.[Br-].[Br-] + O
Details	mass density [kg/m3]	speed of sound [m/s]	viscosity [mPa·s]
293.15 K, m1 = 0.04944	1004.66	1489.8	1.026
293.15 K, m1 = 0.06711	1006.89	1492	1.034
293.15 K, m1 = 0.07912	1008.4	1493.5	1.039
293.15 K, m1 = 0.0927	1010.06	1495.1	1.044
293.15 K, m1 = 0.1021	1011.22	1496.2	1.049
298.15 K, m1 = 0.04944	1003.45	1503.2	0.914
298.15 K, m1 = 0.06711	1005.68	1505.2	0.921
298.15 K, m1 = 0.07912	1007.18	1506.6	0.926
298.15 K, m1 = 0.0927	1008.82	1508	0.931
298.15 K, m1 = 0.1021	1009.97	1509	0.935
303.15 K, m1 = 0.04944	1002.01	1515.4	0.821
303.15 K, m1 = 0.06711	1004.22	1517.1	0.828
303.15 K, m1 = 0.07912	1005.71	1518.5	0.833
303.15 K, m1 = 0.0927	1007.35	1519.8	0.839
303.15 K, m1 = 0.1021	1008.49	1520.7	0.842
308.15 K, m1 = 0.04944	1000.35	1524.7	0.744
308.15 K, m1 = 0.06711	1002.54	1526.3	0.751
308.15 K, m1 = 0.07912	1004.03	1527.3	0.756
308.15 K, m1 = 0.0927	1005.67	1528.9	0.762
308.15 K, m1 = 0.1021	1006.8	1529.5	0.765
313.15 K, m1 = 0.04944	998.497	1534.1	0.677
313.15 K, m1 = 0.06711	1000.68	1535.5	0.683
313.15 K, m1 = 0.07912	1002.15	1536.5	0.688
313.15 K, m1 = 0.0927	1003.79	1537.8	0.692
313.15 K, m1 = 0.1021	1004.91	1538.5	0.696

C[n+]1ccn(CCCn2cc[n+](C)c2)c1.[Br-].[Br-] [1,3-bis[3-methylimidazolium-1-yl]propane dibromide] + O
Details	mass density [kg/m3]	speed of sound [m/s]	viscosity [mPa·s]
293.15 K, m1 = 0.03423	1002.81	1486.3	1.019
293.15 K, m1 = 0.04998	1004.86	1488.1	1.025
293.15 K, m1 = 0.06131	1006.3	1489.3	1.029
293.15 K, m1 = 0.07119	1007.55	1490.3	1.033
293.15 K, m1 = 0.08049	1008.72	1491.3	1.037
293.15 K, m1 = 0.089	1009.76	1492.2	1.04
293.15 K, m1 = 0.09492	1010.48	1492.8	1.042
298.15 K, m1 = 0.03423	1001.61	1499.9	0.906
298.15 K, m1 = 0.04998	1003.65	1501.6	0.912
298.15 K, m1 = 0.06131	1005.1	1502.6	0.917
298.15 K, m1 = 0.07119	1006.34	1503.5	0.921
298.15 K, m1 = 0.08049	1007.49	1504.6	0.924
298.15 K, m1 = 0.089	1008.53	1505.4	0.927
298.15 K, m1 = 0.09492	1009.24	1505.8	0.929
303.15 K, m1 = 0.03423	1000.19	1512.3	0.814
303.15 K, m1 = 0.04998	1002.22	1513.9	0.82
303.15 K, m1 = 0.06131	1003.66	1514.9	0.824
303.15 K, m1 = 0.07119	1004.89	1515.8	0.828
303.15 K, m1 = 0.08049	1006.04	1516.6	0.831
303.15 K, m1 = 0.089	1007.06	1517.5	0.835
303.15 K, m1 = 0.09492	1007.78	1518	0.838
308.15 K, m1 = 0.03423	998.558	1521.8	0.737
308.15 K, m1 = 0.04998	1000.57	1523.2	0.743
308.15 K, m1 = 0.06131	1002.01	1524	0.747
308.15 K, m1 = 0.07119	1003.23	1524.8	0.751
308.15 K, m1 = 0.08049	1004.38	1525.7	0.755
308.15 K, m1 = 0.089	1005.39	1526.4	0.758
308.15 K, m1 = 0.09492	1006.11	1526.8	0.76
313.15 K, m1 = 0.03423	996.725	1531.6	0.675
313.15 K, m1 = 0.04998	998.73	1532.7	0.679
313.15 K, m1 = 0.06131	1000.15	1533.5	0.683
313.15 K, m1 = 0.07119	1001.38	1534.1	0.689
313.15 K, m1 = 0.08049	1002.51	1534.8	0.686
313.15 K, m1 = 0.089	1003.53	1535.5	0.689
313.15 K, m1 = 0.09492	1004.24	1535.8	0.691

C[n+]1ccn(CCCCCn2cc[n+](C)c2)c1.[Br-].[Br-] + O
Details	mass density [kg/m3]	speed of sound [m/s]	viscosity [mPa·s]
293.15 K, m1 = 0.03341	1002.35	1488.3	1.021
293.15 K, m1 = 0.04614	1003.89	1490.3	1.027
293.15 K, m1 = 0.05646	1005.11	1491.6	1.032
293.15 K, m1 = 0.06717	1006.38	1493.3	1.037
293.15 K, m1 = 0.0777	1007.58	1494.8	1.042
293.15 K, m1 = 0.08857	1008.85	1496.4	1.047
293.15 K, m1 = 0.09671	1009.75	1497.3	1.05
298.15 K, m1 = 0.03341	1001.16	1501.9	0.908
298.15 K, m1 = 0.04614	1002.7	1503.7	0.914
298.15 K, m1 = 0.05646	1003.91	1505	0.918
298.15 K, m1 = 0.06717	1005.17	1506.5	0.924
298.15 K, m1 = 0.0777	1006.38	1507.8	0.928
298.15 K, m1 = 0.08857	1007.62	1509.2	0.933
298.15 K, m1 = 0.09671	1008.51	1510.2	0.936
303.15 K, m1 = 0.03341	999.742	1514.4	0.815
303.15 K, m1 = 0.04614	1001.27	1515.9	0.821
303.15 K, m1 = 0.05646	1002.47	1517.1	0.825
303.15 K, m1 = 0.06717	1003.73	1518.5	0.83
303.15 K, m1 = 0.0777	1004.93	1519.8	0.835
303.15 K, m1 = 0.08857	1006.16	1520.9	0.839
303.15 K, m1 = 0.09671	1007.05	1521.8	0.843
308.15 K, m1 = 0.03341	998.108	1523.7	0.737
308.15 K, m1 = 0.04614	999.627	1525.1	0.741
308.15 K, m1 = 0.05646	1000.83	1526.4	0.747
308.15 K, m1 = 0.06717	1002.07	1527.4	0.752
308.15 K, m1 = 0.0777	1003.27	1528.7	0.757
308.15 K, m1 = 0.08857	1004.5	1529.9	0.762
308.15 K, m1 = 0.09671	1005.38	1530.7	0.766
313.15 K, m1 = 0.03341	996.275	1533.2	0.67
313.15 K, m1 = 0.04614	997.783	1534.3	0.676
313.15 K, m1 = 0.05646	998.981	1535.4	0.681
313.15 K, m1 = 0.06717	1000.22	1536.5	0.685
313.15 K, m1 = 0.0777	1001.41	1537.5	0.689
313.15 K, m1 = 0.08857	1002.64	1538.6	0.694
313.15 K, m1 = 0.09671	1003.53	1539.4	0.697
